Measured values: patent publication US9359367B2, “Tetrahydroquinazolinone derivatives as PARP inhibitors” (Lupin Limited, priority 2012, dated 2016)
pIC50: −log10 of the molar value.

These compounds were tested against T1, PARP1 (Homo sapiens, UniProt P09874) (assay: PARP1 Biochemical Assay (BPS Bioscience kit, chemiluminescence)). Details: histone-coated plate, biotinilated NAD+, 25° C. for 60 min, luminescence, read-out: PARP 1 inhibition IC50.
T1 construct: purchased BPS Bioscience
Description: The assay was performed using BPS Bioscience kit. The 96-well strip plate was coated with 50 μl of histone mixture and incubated at 4° C. overnight. Next day the wells were blocked by adding 100 μl of blocking buffer. The plate was washed and 25 μl of appropriate concentration of PARP1 (25-75 ng/well) was added in all the Test and Positive control wells. In Negative control wells enzyme was replaced with 25 μl of water. To it 5 μl each of 10×PARP assay buffer and activated DNA was added in all the wells (Test, Positive and Negative control wells). 10× concentration of test compounds were prepared and 5 μl test compounds were added respective wells. Reaction volume was made up to 45 μl by adding water to all the wells. Finally, 5 μl of 10×PARP assay mixture containing biotinilated NAD^+ was added in each well and the plate was incubated at ambient temperature (25° C.) for 60 min. After washing the plate 50 μl of Streptavidin-HRP was added in each well and incubated the plate at RT for 30 min. The plate was washed and the luminescence was read in PHERAStar plate reader after adding 100 μl of chemiluminescent substrate.
PARP inhibition was calculated using the following formula: % PARP inhibition=100−[(RLU test compound treated sample−RLU negative control)/(RLU Positive control−RLU negative control)×100]
IC50 values were calculated by plotting % inhibition against the respective concentrations of test compounds using GraphPad Prism 5.

T1 sequence (P09874 whole entry): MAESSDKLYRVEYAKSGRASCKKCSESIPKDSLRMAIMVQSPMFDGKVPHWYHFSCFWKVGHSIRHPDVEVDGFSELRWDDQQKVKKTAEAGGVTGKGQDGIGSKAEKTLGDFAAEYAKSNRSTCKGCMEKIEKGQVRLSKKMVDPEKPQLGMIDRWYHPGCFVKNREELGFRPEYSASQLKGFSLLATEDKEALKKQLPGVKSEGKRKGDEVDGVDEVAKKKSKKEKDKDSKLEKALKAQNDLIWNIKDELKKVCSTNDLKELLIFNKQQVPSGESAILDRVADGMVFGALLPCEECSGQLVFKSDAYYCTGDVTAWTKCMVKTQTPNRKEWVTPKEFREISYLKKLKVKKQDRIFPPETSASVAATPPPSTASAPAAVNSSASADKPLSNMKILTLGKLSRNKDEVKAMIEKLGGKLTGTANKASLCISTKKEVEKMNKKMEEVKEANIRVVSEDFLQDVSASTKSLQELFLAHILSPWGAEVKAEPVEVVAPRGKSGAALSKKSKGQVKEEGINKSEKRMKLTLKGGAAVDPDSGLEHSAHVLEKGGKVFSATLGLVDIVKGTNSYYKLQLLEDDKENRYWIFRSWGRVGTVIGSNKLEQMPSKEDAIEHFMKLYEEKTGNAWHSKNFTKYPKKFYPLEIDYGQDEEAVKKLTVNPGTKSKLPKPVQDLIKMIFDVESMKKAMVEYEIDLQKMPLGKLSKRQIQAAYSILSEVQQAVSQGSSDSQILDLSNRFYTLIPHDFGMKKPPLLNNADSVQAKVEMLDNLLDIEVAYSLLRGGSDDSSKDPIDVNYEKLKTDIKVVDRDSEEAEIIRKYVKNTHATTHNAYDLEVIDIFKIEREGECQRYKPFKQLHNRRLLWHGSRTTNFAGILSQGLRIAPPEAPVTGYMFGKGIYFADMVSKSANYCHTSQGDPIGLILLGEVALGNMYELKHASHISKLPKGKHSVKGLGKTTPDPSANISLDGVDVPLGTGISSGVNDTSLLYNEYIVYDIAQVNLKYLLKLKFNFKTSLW

`O=c1[nH]c(C2=C[C@@H](N3CCN(c4ccc(Cl)cc4)CC3)CC2)nc2c1CCCC21CC1` [Compound 40, (S)-2′-(3-(4-(4-chlorophenyl)piperazin-1-yl)cyclopent-1-en-1-yl)-6′,7′-dihydro-3′H-spiro[cyclopropane-1,8′-quinazolin]-4′(5′H)-one] and `O=c1[nH]c(C2=C[C@H](N3CCN(c4ccc(F)c(F)c4)CC3)CC2)nc2c1CC1(CC2)CC1` [Compound 62, (R)-2′-(3-(4-(3,4-difluorophenyl)piperazin-1-yl)cyclopent-1-en-1-yl)-7′,8′-dihydro-3′H-spiro[cyclopropane-1,6′-quinazolin]-4′(5′H)-one] fall in the same range of pIC50: 6.30 to 9.00 for the first, 6.30 to 9.00 for the second.

`CNC(=O)c1ccc(N2CCN([C@H]3C=C(c4nc5c(c(=O)[nH]4)CC4(CC5)CC4)CC3)CC2)c(F)c1` [Compound 68, (R)-3-fluoro-N-methyl-4-(4-(3-(4′-oxo-4′,5′,7′,8′-tetrahydro-3′H-spiro[cyclopropane-1,6′-quinazolin]-2′-yl)cyclopent-2-en-1-yl)piperazin-1-yl)benzamide] and `CNC(=O)c1ccc(N2CCN([C@@H]3C=C(c4nc5c(c(=O)[nH]4)CC4(CC5)CC4)CC3)CC2)cc1` [Compound 53, (S)—N-methyl-4-(4-(3-(4′-oxo-4′,5′,7′,8′-tetrahydro-3′H-spiro[cyclopropane-1,6′-quinazolin]-2′-yl)cyclopent-2-en-1-yl)piperazin-1-yl)benzamide] fall in the same range of pIC50: 6.30 to 9.00 for the first, 6.30 to 9.00 for the second.

First: O=c1[nH]c(CCCN2CCN(c3cccc(Cl)c3)CC2)nc2c1CC1(CC2)CC1 [Compound 18, 2′-(3-(4-(3-chlorophenyl)piperazin-1-yl)propyl)-7′,8′-dihydro-3′H-spiro[cyclopropane-1,6′-quinazolin]-4′(5′H)-one]
Second: O=c1[nH]c(CCCN2CCN(c3ccc(Cl)c(Cl)c3)CC2)nc2c1CC1(CC2)CC1 [Compound 10, 2′-(3-(4-(3,4-dichlorophenyl)piperazin-1-yl)propyl)-7′,8′-dihydro-3′H-spiro[cyclopropane-1,6′-quinazolin]-4′(5′H)-one]
The pIC50 of the first is lower: 3.30 to 5.30 for the first, 5.30 to 6.30 for the second. The second is the more potent here.

First: Cc1csc(N2CCN([C@H]3C=C(c4nc5c(c(=O)[nH]4)CC4(CC5)CC4)CC3)CC2)n1 [Compound 102, (R)-2′-(3-(4-(4-methylthiazol-2-yl)piperazin-1-yl)cyclopent-1-en-1-yl)-7′,8′-dihydro-3′H-spiro[cyclopropane-1,6′-quinazolin]-4′(5′H)-one]
Second: Cc1ccc(N2CCN([C@H]3C=C(c4nc5c(c(=O)[nH]4)CC4(CC5)CC4)CC3)CC2)nc1 [Compound 124, (R)-2′-(3-(4-(5-methylpyridin-2-yl)piperazin-1-yl)cyclopent-1-en-1-yl)-7′,8′-dihydro-3′H-spiro[cyclopropane-1,6′-quinazolin]-4′(5′H)-one]
The pIC50 of the first is lower: 5.30 to 6.30 for the first, 6.30 to 9.00 for the second. The second is the more potent here.

First: O=c1[nH]c(C2=CC(N3CCN(c4ccncc4)CC3)CC2)nc2c1CC1(CC2)CC1 (stereo not drawn) [Compound 39, 2′-(3-(4-(pyridin-4-yl)piperazin-1-yl)cyclopent-1-en-1-yl)-7′,8′-dihydro-3′H-spiro[cyclopropane-1,6′-quinazolin]-4′(5′H)-one]
Second: O=c1[nH]c(C2=C[C@H](N3CCN(c4ncccn4)CC3)CC2)nc2c1CC1(CC2)CC1 [Compound 128, (R)-2′-(3-(4-(pyrimidin-2-yl)piperazin-1-yl)cyclopent-1-en-1-yl)-7′,8′-dihydro-3′H-spiro[cyclopropane-1,6′-quinazolin]-4′(5′H)-one]
The pIC50 of the first is higher: 6.30 to 9.00 for the first, 3.30 to 5.30 for the second.

Compared with `O=c1[nH]c(C2=C[C@H](N3CCN(c4cc(F)cc(Cl)c4)CC3)CC2)nc2c1CC1(CC2)CC1` [Compound 115, (R)-2′-(3-(4-(3-chloro-5-fluorophenyl)piperazin-1-yl)cyclopent-1-en-1-yl)-7′,8′-dihydro-3′H-spiro[cyclopropane-1,6′-quinazolin]-4′(5′H)-one], `O=c1[nH]c(C2=C[C@H](N3CCN(c4ncc(Cl)cc4Cl)CC3)CC2)nc2c1CC1(CC2)CC1` [Compound 107, (R)-2′-(3-(4-(3,5-dichloropyridin-2-yl)piperazin-1-yl)cyclopent-1-en-1-yl)-7′,8′-dihydro-3′H-spiro[cyclopropane-1,6′-quinazolin]-4′(5′H)-one] is higher in pIC50: 5.30 to 6.30 for the first, 6.30 to 9.00 for the second.

First: O=c1[nH]c(CCCN2CCN(c3ccc(Cl)cc3)CC2)nc2c1C1CCC2C1 (stereo not drawn) [Compound 36, 2-(3-(4-(4-chlorophenyl)piperazin-1-yl)propyl)-5,6,7,8-tetrahydro-5,8-methanoquinazolin-4(3H)-one]
Second: Cc1ccc(N2CCN(CCCc3nc4c(c(=O)[nH]3)CC3(CC4)CC3)CC2)cc1 [Compound 32, 2′-(3-(4-(p-tolyl)piperazin-1-yl)propyl)-7′,8′-dihydro-3′H-spiro[cyclopropane-1,6′-quinazolin]-4′(5′H)-one]
The pIC50 of the first is lower: 3.30 to 5.30 for the first, 6.30 to 9.00 for the second.

Compared with `O=c1[nH]c([C@H]2CC[C@@H](N3CCN(c4ccc(F)cc4)CC3)C2)nc2c1CC1(CC2)CC1` [Compound 151, 2′-((1S,3R)-3-(4-(4-fluorophenyl)piperazin-1-yl)cyclopentyl)-7′,8′-dihydro-3′H-spiro[cyclopropane-1,6′-quinazolin]-4′(5′H)-one], `O=c1[nH]c([C@H]2CC[C@@H](N3CCN(c4ccc(Cl)cc4)CC3)C2)nc2c1CC1(CC2)CC1` [Compound 120, 2′-((1S,3R)-3-(4-(4-chlorophenyl)piperazin-1-yl)cyclopentyl)-7′,8′-dihydro-3′H-spiro[cyclopropane-1,6′-quinazolin]-4′(5′H)-one] is lower in pIC50: 6.30 to 9.00 for the first, 5.30 to 6.30 for the second. The first is the more potent here.

First: O=c1[nH]c(C2=C[C@H](N3CCC(c4ccc(F)cc4)CC3)CC2)nc2c1CC1(CC2)CC1 [Compound 75, (R)-2′-(3-(4-(4-fluorophenyl)piperidin-1-yl)cyclopent-1-en-1-yl)-7′,8′-dihydro-3′H-spiro[cyclopropane-1,6′-quinazolin]-4′(5′H)-one]
Second: O=c1[nH]c(C2=C[C@@H](N3CCC(c4ccc(Cl)cc4)CC3)CC2)nc2c1CC1(CC2)CC1 [Compound 55, (S)-2′-(3-(4-(4-chlorophenyl)piperidin-1-yl)cyclopent-1-en-1-yl)-7′,8′-dihydro-3′H-spiro[cyclopropane-1,6′-quinazolin]-4′(5′H)-one]
The pIC50 of the first is higher: 6.30 to 9.00 for the first, 5.30 to 6.30 for the second. The first is the more potent here.

Compared with `CC1(C)CC(c2nc3c(c(=O)[nH]2)CC2(CC3)CC2)=C[C@H]1N1CCN(c2ccc(F)cc2)CC1` [Compound 70, (R)-2′-(3-(4-(4-fluorophenyl)piperazin-1-yl)-4,4-dimethylcyclopent-1-en-1-yl)-7′,8′-dihydro-3′H-spiro[cyclopropane-1,6′-quinazolin]-4′(5′H)-one], `O=c1[nH]c(C2=C[C@H](N3CCN(c4ccc(F)cn4)CC3)CC2)nc2c1CC1(CC2)CC1` [Compound 58, (R)-2′-(3-(4-(5-fluoropyridin-2-yl)piperazin-1-yl)cyclopent-1-en-1-yl)-7′,8′-dihydro-3′H-spiro[cyclopropane-1,6′-quinazolin]-4′(5′H)-one] is higher in pIC50: 3.30 to 5.30 for the first, 6.30 to 9.00 for the second. The second is the more potent here.

`O=c1[nH]c(CCCN2CCN(c3ccc(Cl)cc3Cl)CC2)nc2c1CC1(CC2)CC1` [Compound 34, 2′-(3-(4-(2,4-dichlorophenyl)piperazin-1-yl)propyl)-7′,8′-dihydro-3′H-spiro[cyclopropane-1,6′-quinazolin]-4′(5′H)-one] and `CNC(=O)c1ccc(N2CCN([C@H]3C=C(c4nc5c(c(=O)[nH]4)CC4(CC5)CC4)CC3)CC2)cc1Cl` [Compound 94, (R)-2-chloro-N-methyl-4-(4-(3-(4′-oxo-4′,5′,7′,8′-tetrahydro-3′H-spiro[cyclopropane-1,6′-quinazolin]-2′-yl)cyclopent-2-en-1-yl)piperazin-1-yl)benzamide] fall in the same range of pIC50: 6.30 to 9.00 for the first, 6.30 to 9.00 for the second.

`O=c1[nH]c(C2=C[C@H](N3CCC(c4ccc(Cl)cc4)CC3)CC2)nc2c1CC1(CC2)CC1` [Compound 56, (R)-2′-(3-(4-(4-chlorophenyl)piperidin-1-yl)cyclopent-1-en-1-yl)-7′,8′-dihydro-3′H-spiro[cyclopropane-1,6′-quinazolin]-4′(5′H)-one] and `O=c1[nH]c(C2=C[C@@H](N3CC=C(c4ccc(Cl)cc4)CC3)CC2)nc2c1CC1(CC2)CC1` [Compound 47, (S)-2′-(3-(4-(4-chlorophenyl)-5,6-dihydropyridin-1(2H)-yl)cyclopent-1-en-1-yl)-7′,8′-dihydro-3′H-spiro[cyclopropane-1,6′-quinazolin]-4′(5′H)-one] fall in the same range of pIC50: 6.30 to 9.00 for the first, 6.30 to 9.00 for the second.

First: O=c1[nH]c(CCCN2CC=C(c3ccccc3)CC2)nc2c1CCCC21CC1 [Compound 3, 2′-(3-(4-phenyl-5,6-dihydropyridin-1(2H)-yl)propyl)-6′,7′-dihydro-3′H-spiro[cyclopropane-1,8′-quinazolin]-4′(5′H)-one]
Second: O=c1[nH]c(C2=C[C@H](N3CCN(c4ccc(-c5ccccc5)nc4)CC3)CC2)nc2c1CC1(CC2)CC1 [Compound 157, (R)-2′-(3-(4-(6-phenylpyridin-3-yl)piperazin-1-yl)cyclopent-1-en-1-yl)-7′,8′-dihydro-3′H-spiro[cyclopropane-1,6′-quinazolin]-4′(5′H)-one]
The pIC50 of the first is higher: 6.30 to 9.00 for the first, 5.30 to 6.30 for the second.

Compound `CCc1cnc(N2CCN([C@H]3C=C(c4nc5c(c(=O)[nH]4)CC4(CC5)CC4)CC3)CC2)nc1` [Compound 135, (R)-2′-(3-(4-(5-ethylpyrimidin-2-yl)piperazin-1-yl)cyclopent-1-en-1-yl)-7′,8′-dihydro-3′H-spiro[cyclopropane-1,6′-quinazolin]-4′(5′H)-one] has a pIC50 of 3.30 to 5.30.
